Values after ≈ are worked out from the molar mass of the structure shown. Blank lines part the entries; values can stand above or below the molecule they belong to. Peptide text beside a SMILES is read from it.
What was measured:
Dynamic light scattering = type: physicochemical; conditions: pH 6.8, room temperature
physchem = type: physicochemical; conditions: for Fold lower critical concentration compared with AFA: at the highest measured temperature
[1] = type: physicochemical; conditions: for Effect of polyphenols (EGCG, TA, RA) on critical soluble concentration: increasing inhibitor ratio, dose-dependent
[2] = aqueous solution; cited from earlier work
[3] = pH 6.8, Water solubility (critical soluble concentration), pure water, room temperature, pH 6.8
[4] = water, room temperature, pH 6.8

Structure (SMILES): C[C@H](N)C(=O)N[C@@H](Cc1ccccc1)C(=O)N[C@@H](Cc1ccccc1)C(=O)O [AFF, reference compound] (H-Ala-Phe-Phe-OH)
solubility (physchem; [3]): 98.3 mM (≈ 37.7 mg/mL)
Fold higher solubility compared with GFF (physchem; [4]): 6 fold

Structure (SMILES): N[C@@H](Cc1ccccc1)C(=O)N[C@@H](Cc1ccccc1)C(=O)O [FF, reference compound] (H-Phe-Phe-OH)
solubility (physchem; [3]): 8.1 mM (≈ 2.53 mg/mL)

Structure (SMILES): CC(C)C[C@H](NC(=O)[C@@H](N)Cc1ccccc1)C(=O)O [FL, reference compound] (H-Phe-Leu-OH)
solubility (physchem; [3]): 28.3 mM (≈ 7.88 mg/mL)

Structure (SMILES): NCC(=O)N[C@@H](Cc1ccccc1)C(=O)N[C@@H](Cc1ccccc1)C(=O)O [GFF, reference compound] (H-Gly-Phe-Phe-OH)
solubility (physchem; [3]): 14.5 mM (≈ 5.36 mg/mL)

Structure (SMILES): O=C(O)[C@H](Cc1ccccc1)NC(=O)[C@H](Cc1ccccc1)NC(=O)[C@@H]1CCCN1 [PFF, reference compound] (H-Pro-Phe-Phe-OH)
solubility (physchem; [3]): 2.6 mM (≈ 1.06 mg/mL)

Continued, in another order:

DLS cluster size (Dynamic light scattering; 100 mM in water): approximately 4,000 nm
DLS cluster size (Dynamic light scattering; above 40 mM in water): remained constant
Fold lower critical concentration compared with AFA (physchem): ~6 fold
solubility at 2 min (physchem; [3]): 105 mM (≈ 32.3 mg/mL)
Effect of polyphenols (EGCG, TA, RA) on critical soluble concentration [1]: significant increase
Fold increase of solubility by TA ([1]; peptide:TA 1:2, versus no inhibitor): 3 fold
Structure (SMILES): C[C@H](N)C(=O)N[C@@H](C)C(=O)N[C@@H](Cc1ccccc1)C(=O)O [AAF] (H-Ala-Ala-Phe-OH)

DLS cluster size (Dynamic light scattering; 100 mM in water): persisted
DLS cluster size (Dynamic light scattering; above 40 mM in water): remained constant
solubility (physchem; Water solubility, water, 70°C): 702 mM (≈ 216 mg/mL)
solubility (physchem; Water solubility, water, 90°C): 720 mM (≈ 221 mg/mL)
solubility (physchem; Water solubility, water, near the boiling point of water): 710 mM (≈ 218 mg/mL)
Minimal critical concentration (physchem; around pH 6–7, room temperature): 668 mM
solubility (physchem; [3]): 672 mM (≈ 207 mg/mL)
Water solubility (physchem; pH approaching the pKa value of either terminus, room temperature): 672 mM
Fold higher solubility compared with AAF (physchem; [4]): 6 fold
Fold higher solubility compared with FAA (physchem; [4]): 15 fold
Effect of inhibitors (EGCG, TA, RA) on solubility ([1]; molar ratios 1:0.1–1:0.3): unable to significantly alter
Structure (SMILES): C[C@H](N)C(=O)N[C@@H](Cc1ccccc1)C(=O)N[C@@H](C)C(=O)O [AFA, Ala-Phe-Ala] (H-Ala-Phe-Ala-OH)
Reported critical concentration [2]: up to 10 mM

DLS cluster size (Dynamic light scattering; above 40 mM in water): approximately 2000 nm
Fold lower critical concentration compared with AFA (physchem): ~15 fold
solubility (physchem; [3]): 42 mM (≈ 12.9 mg/mL)
Effect of polyphenols (EGCG, TA, RA) on critical soluble concentration [1]: significant increase
Structure (SMILES): C[C@H](NC(=O)[C@H](C)NC(=O)[C@@H](N)Cc1ccccc1)C(=O)O [FAA] (H-Phe-Ala-Ala-OH)

solubility (physchem; [3]): 0.5 mM (≈ 0.23 mg/mL)
Structure (SMILES): N[C@@H](Cc1ccccc1)C(=O)N[C@@H](Cc1ccccc1)C(=O)N[C@@H](Cc1ccccc1)C(=O)O [FFF, reference compound] (H-Phe-Phe-Phe-OH)

solubility (physchem; [3]): 19.4 mM (≈ 5.4 mg/mL)
Structure (SMILES): CC(C)C[C@H](N)C(=O)N[C@@H](Cc1ccccc1)C(=O)O [LF, reference compound] (H-Leu-Phe-OH)

— paper PMC8063180 (Cell Reports. Physical Science, 2021)
